Assays:
[1] = biological target: T1, human ENPP1 (Homo sapiens, UniProt P22413); experiment: ENPP1 assay with ATP substrate (Transcreener AMP2/GMP2 TR-FRET); assay type: biochemical; conditions: 1 hour at room temperature
T1 construct: made in house
T1 sequence (P22413 1-925): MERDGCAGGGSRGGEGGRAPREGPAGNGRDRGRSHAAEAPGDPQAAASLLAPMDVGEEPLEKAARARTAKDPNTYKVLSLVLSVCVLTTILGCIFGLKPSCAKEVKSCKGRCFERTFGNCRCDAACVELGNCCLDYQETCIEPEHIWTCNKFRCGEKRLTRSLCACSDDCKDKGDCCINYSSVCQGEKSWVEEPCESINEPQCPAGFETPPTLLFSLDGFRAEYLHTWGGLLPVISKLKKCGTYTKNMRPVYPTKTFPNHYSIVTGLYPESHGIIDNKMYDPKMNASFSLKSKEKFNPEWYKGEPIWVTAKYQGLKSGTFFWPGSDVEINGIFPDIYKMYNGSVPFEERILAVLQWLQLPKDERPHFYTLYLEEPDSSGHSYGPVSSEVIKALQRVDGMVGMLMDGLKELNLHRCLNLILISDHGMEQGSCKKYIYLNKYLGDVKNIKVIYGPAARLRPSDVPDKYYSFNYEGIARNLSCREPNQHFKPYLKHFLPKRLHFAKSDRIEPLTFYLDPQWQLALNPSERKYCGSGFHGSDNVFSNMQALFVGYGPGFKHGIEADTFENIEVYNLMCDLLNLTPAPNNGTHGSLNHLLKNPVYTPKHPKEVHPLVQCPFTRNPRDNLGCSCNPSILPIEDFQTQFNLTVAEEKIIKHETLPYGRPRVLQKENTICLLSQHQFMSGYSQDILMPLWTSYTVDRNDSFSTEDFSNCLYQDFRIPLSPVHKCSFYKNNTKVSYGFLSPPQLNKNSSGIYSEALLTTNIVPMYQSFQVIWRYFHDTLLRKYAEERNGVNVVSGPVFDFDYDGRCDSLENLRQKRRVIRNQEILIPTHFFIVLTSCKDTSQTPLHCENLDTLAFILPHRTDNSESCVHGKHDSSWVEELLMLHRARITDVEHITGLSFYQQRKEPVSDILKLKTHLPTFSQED
Procedure, shortened: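 Reaction ran 1 h at room temperature in pH 7.5 Tris with MgCl2, TCEP, Tween 20 and 1% DMSO. ATP was added as a 300 nM stock and enzyme as an 8.5 μM stock. After EDTA stop, AMP was read by TR-FRET tracer displacement. Percent inhibition used enzyme/no-enzyme controls; IC50 was fitted with a variable slope.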

[2] = biological target: T2, ENPP3 (Homo sapiens, UniProt O14638); experiment: ENPP3 Km ATP assay; assay type: biochemical; conditions: ATP at Km
T2 sequence (O14638 1-875): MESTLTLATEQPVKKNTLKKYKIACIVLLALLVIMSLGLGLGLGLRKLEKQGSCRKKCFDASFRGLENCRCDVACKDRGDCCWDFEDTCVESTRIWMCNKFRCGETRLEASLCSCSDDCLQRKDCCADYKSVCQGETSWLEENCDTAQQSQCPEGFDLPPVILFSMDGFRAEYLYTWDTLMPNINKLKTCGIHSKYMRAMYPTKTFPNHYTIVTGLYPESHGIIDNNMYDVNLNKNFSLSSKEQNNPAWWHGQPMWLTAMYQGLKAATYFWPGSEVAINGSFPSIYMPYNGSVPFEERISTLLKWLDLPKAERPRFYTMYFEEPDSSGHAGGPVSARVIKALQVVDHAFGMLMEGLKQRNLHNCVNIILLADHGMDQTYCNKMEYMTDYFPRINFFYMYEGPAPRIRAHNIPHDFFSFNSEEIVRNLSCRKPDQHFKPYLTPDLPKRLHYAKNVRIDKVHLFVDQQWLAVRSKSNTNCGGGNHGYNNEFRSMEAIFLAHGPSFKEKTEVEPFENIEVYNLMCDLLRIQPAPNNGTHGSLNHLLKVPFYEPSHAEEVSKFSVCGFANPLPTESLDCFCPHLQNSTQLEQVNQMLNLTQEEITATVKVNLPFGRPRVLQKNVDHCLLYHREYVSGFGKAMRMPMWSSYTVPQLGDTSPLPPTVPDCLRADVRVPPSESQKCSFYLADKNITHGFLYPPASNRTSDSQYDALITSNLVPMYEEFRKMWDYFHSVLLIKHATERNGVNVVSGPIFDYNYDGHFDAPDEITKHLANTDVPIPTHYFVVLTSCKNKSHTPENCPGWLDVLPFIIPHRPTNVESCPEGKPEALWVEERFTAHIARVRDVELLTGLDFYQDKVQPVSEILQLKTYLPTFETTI

SMILES | IC50 [1] [µM] | IC50 [2] [µM]
COc1nc(NCc2ccc(S(N)(=O)=O)cc2)c2c(Br)nn(C)c2n1 [Example 2.96, 4-((3-Bromo-6-methoxy-1-methyl-1H-pyrazolo[3,4-d]pyrimidin-4-yl)aminomethyl)-benzenesulfonamide] | < 0.1 | < 0.1
CCOc1nc(NCc2ccc(S(N)(=O)=O)cc2)c2c(Br)nn(C)c2n1 [Example 2.97, 4-((3-Bromo-6-ethoxy-1-methyl-1H-pyrazolo[3,4-d]pyrimidin-4-yl)aminomethyl)-benzenesulfonamide] | < 0.1 | < 0.1
CCn1ncc2c(NCc3ccc(S(N)(=O)=O)cc3)nc(OCCC(C)(C)OC)nc21 [Example 2.98, 4-((1-Ethyl-6-(3-methoxy-3-methylbutoxy)-1H-pyrazolo[3,4-d]pyrimidin-4-yl)aminomethyl)-benzenesulfonamide] | < 0.1 | 1 to 20
Cn1ncc2c(NCc3ccc(S(N)(=O)=O)cc3)nc(OCC(F)(F)F)nc21 [Example 2.99, 4-((6-(2,2,2-Trifluoroethoxy)-1-methyl-1H-pyrazolo[3,4-d]pyrimidin-4-yl)aminomethyl)-benzenesulfonamide] | 0.1 to 1 | 0.1 to 1
CC(C)CCOc1nc(NCc2ccc(S(N)(=O)=O)cc2)c2cnn(C)c2n1 [Example 2.101, 4-((1-Methyl-6-(3-methylbutoxy)-1H-pyrazolo[3,4-d]pyrimidin-4-yl)aminomethyl)-benzenesulfonamide] | < 0.1 | 0.1 to 1
CCn1ncc2c(NCc3ccc(S(N)(=O)=O)cc3)nc(OCCC(C)C)nc21 [Example 2.102, 4-((1-Ethyl-6-(3-methylbutoxy)-1H-pyrazolo[3,4-d]pyrimidin-4-yl)aminomethyl)-benzenesulfonamide] | < 0.1 | 0.1 to 1
CSc1nc(NCc2ccc(S(N)(=O)=O)cc2)c2cnn(C)c2n1 [Example 2.107, 4-((1-Methyl-6-(methylsulfanyl)-1H-pyrazolo[3,4-d]pyrimidin-4-yl)aminomethyl)-benzenesulfonamide] | < 0.1 | < 0.1
CCSc1nc(NCc2ccc(S(N)(=O)=O)cc2)c2cnn(C)c2n1 [Example 2.108, 4-((6-(Ethylsulfanyl)-1-methyl-1H-pyrazolo[3,4-d]pyrimidin-4-yl)aminomethyl)-benzenesulfonamide] | < 0.1 | < 0.1
CCSc1nc(NCc2ccc(S(N)(=O)=O)cc2)c2cnn(CC)c2n1 [Example 2.109, 4-((1-Ethyl-6-(ethylsulfanyl)-1H-pyrazolo[3,4-d]pyrimidin-4-yl)aminomethyl)-benzenesulfonamide] | < 0.1 | 0.1 to 1
CCSc1nc(NCc2ccc(S(N)(=O)=O)cc2)c2c(Br)nn(C)c2n1 [Example 2.110, 4-((3-Bromo-6-(ethylsulfanyl)-1-methyl-1H-pyrazolo[3,4-d]pyrimidin-4-yl)aminomethyl)-benzenesulfonamide] | < 0.1 | < 0.1
CCCSc1nc(NCc2ccc(S(N)(=O)=O)cc2)c2cnn(C)c2n1 [Example 2.111, 4-((1-Methyl-6-(propylsulfanyl)-1H-pyrazolo[3,4-d]pyrimidin-4-yl)aminomethyl)-benzenesulfonamide] | < 0.1 | 0.1 to 1
CCn1ncc2c(NCc3ccc(S(N)(=O)=O)cc3)ccnc21 [Example 2.122, 4-((1-Ethyl-1H-pyrazolo[3,4-b]pyridin-4-yl)aminomethyl)benzenesulfonamide] | < 0.1 | 1 to 20
Cn1nc(-c2ccccn2)c2c(NCc3ccc(S(N)(=O)=O)cc3)nc(Cl)nc21 [Example 2.124, 4-((6-Chloro-1-methyl-3-(2-pyridyl)-1H-pyrazolo[3,4-d]pyrimidin-4-yl)aminomethyl)benzenesulfonamide] | 0.1 to 1 | 0.1 to 1
Cc1nc(NCc2ccc(S(N)(=O)=O)cc2)c2c(C3=CCCC3)nn(C)c2n1 [Example 2.127, 4-((3-(1-Cyclopenten-1-yl)-1,6-dimethyl-1H-pyrazolo[3,4-d]pyrimidin-4-yl)aminomethyl)benzenesulfonamide] | 1 to 20 | 0.1 to 1

— patent US12643910B2, “Substituted pyrazolo[3,4-b]pyridines as ectonucleotide pyrophosphatase/phosphodiesterase 1 (ENPP1) modulators” (SANFORD BURNHAM PREBYS MEDICAL DISCOVERY INSTITUTE, priority 2019, dated 2026)
